Test results as given in patent US6372747B1, “Farnesyl protein transferase inhibitors” (Schering Corporation, priority 1998, dated 2002).

Row | SMILES | melting point [°C]
1 | CC(C)(CCNC(=O)[C@H]1CN(C2c3ccc(Cl)cc3CCc3cc(Br)cnc32)CCN1S(C)(=O)=O)n1ccnc1 (mixture of isomers) [Example 15] | 107 to 110
2 | Cn1cncc1CCNC(=O)[C@H]1CN(C2c3ccc(Cl)cc3CCc3cc(Br)cnc32)CCN1C(=O)Nc1ccc(F)cc1 (single isomer, unassigned) [Example 27] | 140.1 to 149.4
3 | Cn1cncc1CCNC(=O)[C@H]1CN(C2c3ccc(Cl)cc3CCc3cc(Br)cnc32)CCN1C(=O)NC(C)(C)C (single isomer, unassigned) [Example 28] | 128.1 to 135.2
4 | CC(C)NC(=O)N1CCN(C2c3ccc(Cl)cc3CCc3cc(Br)cnc32)C[C@@H]1C(=O)NCCc1cncn1C (single isomer, unassigned) [Example 29] | 128.1 to 133.4
5 | CC(C)OC(=O)N1CCN(C2c3ccc(Cl)cc3CCc3cc(Br)cnc32)C[C@@H]1C(=O)NCCc1cncn1C (single isomer, unassigned) [Example 30] | 120.3 to 126.1
6 | Cn1cncc1CCNC(=O)[C@H]1CN(C2c3ccc(Cl)cc3CCc3cc(Br)cnc32)CCN1C(=O)N1CCOCC1 (single isomer, unassigned) [Example 31] | 136.4 to 138.6
7 | Cn1cncc1CCNC(=O)[C@H]1CN(C2c3ccc(Cl)cc3CCc3cc(Br)cnc32)CCN1C(=O)OC(C)(C)C (single isomer, unassigned) [Example 32] | 134.9 to 137.5
8 | Cn1cncc1CCNC(=O)[C@H]1CN(C2c3ccc(Cl)cc3CCc3cc(Br)cnc32)CCN1S(C)(=O)=O (single isomer, unassigned) [Example 33] | 139 to 145.1
9 | Cn1cncc1CCNC(=O)[C@H]1CN(C2c3ccc(Cl)cc3CCc3cc(Br)cnc32)CCN1C(=O)c1ccc(F)cc1 (single isomer, unassigned) [Example 34] | 144.9 to 148.7
10 | Cn1cncc1CCNC(=O)[C@H]1CN(C2c3ccc(Cl)cc3CCc3cc(Br)cnc32)CCN1C(=O)Cc1ccc(F)cc1 (single isomer, unassigned) [Example 35] | 132.5 to 139.7
11 | Cn1cncc1CCNC(=O)[C@H]1CN(C2c3ccc(Cl)cc3CCc3cc(Br)cnc32)CCN1C(=O)Cc1cc[n+]([O-])cc1 (single isomer, unassigned) [Example 36] | 168.9 to 172.3
12 | Cn1cncc1CCNC(=O)[C@H]1CN(C2c3ccc(Cl)cc3CCc3cc(Br)cnc32)CCN1C(=O)CC1CCN(C(=O)OC(C)(C)C)CC1 (single isomer, unassigned) [Example 37] | 141.7 to 143.2
13 | Cn1cncc1CCNC(=O)[C@H]1CN(C2c3ccc(Cl)cc3CCc3cc(Br)cnc32)CCN1C(=O)CC1CCNCC1 (single isomer, unassigned) [Example 38] | 136.1 to 139.5
14 | Cn1cncc1CCNC(=O)[C@H]1CN(C2c3ccc(Cl)cc3CCc3cc(Br)cnc32)CCN1C(=O)CC1CCN(C(N)=O)CC1 (single isomer, unassigned) [Example 39] | 148.1 to 150.4
15 | Cn1cncc1CCN(Cc1ccccc1)C(=O)[C@H]1CN(C2c3ccc(Cl)cc3CCc3cc(Br)cnc32)CCN1C(=O)NC1CCCCC1 (single isomer, unassigned) [Example 60] | 130 to 139
16 | Cn1cncc1CCN(Cc1ccccc1)C(=O)[C@H]1CN(C2c3ccc(Cl)cc3CCc3cc(Br)cnc32)CCN1C(=O)NC(C)(C)C (single isomer, unassigned) [Example 61] | 127 to 130
17 | Cn1cncc1CCN(Cc1ccccc1)C(=O)[C@H]1CN(C2c3ccc(Cl)cc3CCc3cccnc32)CCN1C(=O)OC(C)(C)C (single isomer, unassigned) [Example 62] | 93.1 to 99.8
18 | CC(C)(CCNC(=O)[C@H]1CN(C2c3ccc(Cl)cc3CCc3cc(Br)cnc32)CCN1C(=O)OCc1ccccc1)n1ccnc1 (stereo partly shown) [Example 3] | 103 to 106
19 | O=C(NCCC(c1ccc(Cl)cc1)n1ccnc1)[C@H]1CN(C2c3ccc(Cl)cc3CCc3cc(Br)cnc32)CCN1C(=O)NC1CCCCC1 (stereo partly shown) [Example 5] | 138 to 140

Row | SMILES | melting point [°C]
20 | CC(C)(CCNC(=O)[C@H]1CN([C@H]2c3ccc(Cl)cc3CCc3cc(Br)cnc32)CCN1C(=O)Cc1cc[n+]([O-])cc1)n1ccnc1 [Example 6] | 115 to 117
21 | CC(C)(CCNC(=O)[C@H]1CN([C@@H]2c3ccc(Cl)cc3CCc3cc(Br)cnc32)CCN1C(=O)CC1CCN(C(N)=O)CC1)n1ccnc1 [Example 9] | 150 to 153
22 | CC(C)(C)NC(=O)N1CCN([C@H]2c3ccc(Cl)cc3CCc3cc(Br)cnc32)C[C@@H]1C(=O)NCCC(C)(C)n1ccnc1 [Example 10] | 139 to 142
23 | CC(C)(C)NC(=O)N1CCN([C@H]2c3ccc(Cl)cc3CCc3cc(Br)cnc32)C[C@@H]1C(=O)NCCC1(n2ccnc2)CC1 [Example 12] | 136 to 139
24 | CC(C)(C)NC(=O)N1CCN([C@@H]2c3ccc(Cl)cc3CCc3cc(Br)cnc32)C[C@@H]1C(=O)NCCC1(n2ccnc2)CC1 [Example 13] | 106 to 110
25 | CC(C)NC(=O)N1CCN(C2c3ccc(Cl)cc3CCc3cc(Br)cnc32)CC1C(=O)NCCC1(n2ccnc2)CC1 (stereo not shown) [Example 14] | 133 to 139
26 | CN(C)C(=O)N1CCN(C2c3ccc(Cl)cc3CCc3cc(Br)cnc32)CC1C(=O)NCCC(C)(C)n1ccnc1 (stereo not shown) [Example 18] | 139 to 142
27 | CC(CCNC(=O)[C@H]1CN(C2c3ccc(Cl)cc3CCc3cc(Br)cnc32)CCN1C(=O)NC1CCCCC1)n1ccnc1 (stereo partly shown) [Example 19] | 133 to 138
28 | CC(C)(CNC(=O)[C@H]1CN(C2c3ccc(Cl)cc3CCc3cc(Br)cnc32)CCN1C(=O)NC1CCCCC1)c1cnc[nH]1 (stereo partly shown) [Example 21] | 150 to 154
29 | O=C(NCC1(c2cnc[nH]2)CC1)[C@H]1CN(C2c3ccc(Cl)cc3CCc3cc(Br)cnc32)CCN1C(=O)NC1CCCCC1 (stereo partly shown) [Example 22] | 156 to 158
30 | NC(=O)[C@H](Cc1cn(C(=O)NC2CCCCC2)cn1)NC(=O)[C@H]1CN(C2c3ccc(Cl)cc3CCc3cc(Br)cnc32)CCN1C(=O)NC1CCCCC1 (stereo partly shown) [Example 24] | 164 to 167
31 | Cn1cncc1CCNC(=O)[C@H]1CN(C2c3ccc(Cl)cc3CCc3cc(Br)cnc32)CCN1C(=O)OCc1ccccc1 (stereo partly shown) [Example 26] | 111.8 to 114.5
32 | CCn1cncc1CCNC(=O)[C@H]1CN(C2c3ccc(Cl)cc3CCc3cc(Br)cnc32)CCN1C(=O)OC(C)(C)C (stereo partly shown) [Example 40] | 54 to 58
33 | CCCn1cncc1CCNC(=O)C1CN(C2c3ccc(Cl)cc3CCc3cc(Br)cnc32)CCN1C(=O)OC(C)(C)C (stereo not shown) [Example 41] | 116 to 123
34 | CC(C)n1cncc1CCNC(=O)[C@H]1CN(C2c3ccc(Cl)cc3CCc3cc(Br)cnc32)CCN1C(=O)OC(C)(C)C (stereo partly shown) [Example 42] | 98 to 101
35 | CC(C)Cn1cncc1CCNC(=O)[C@H]1CN(C2c3ccc(Cl)cc3CCc3cc(Br)cnc32)CCN1C(=O)OC(C)(C)C (stereo partly shown) [Example 43] | 120 to 122
36 | CC(C)(C)OC(=O)N1CCN(C2c3ccc(Cl)cc3CCc3cc(Br)cnc32)C[C@@H]1C(=O)NCCc1cncn1CCc1ccccc1 (stereo partly shown) [Example 44] | 101 to 103
37 | CN(CCCn1ccnc1)C(=O)[C@H]1CN(C2c3ccc(Cl)cc3CCc3cc(Br)cnc32)CCN1C(=O)NC1CCCCC1 (stereo partly shown) [Example 110] | 118.4
